Here are results for 10 molecules from patent US6818391B2, “Glutamate transporters” (The Regents of the University of California, priority 2000, dated 2004).

One assay addresses T1, BNPI (VGLUT1) (Rattus norvegicus, UniProt Q62634).
T1 construct: expressed in transfected cells; light membranes prepared from them
T1 sequence (Q62634 1-560): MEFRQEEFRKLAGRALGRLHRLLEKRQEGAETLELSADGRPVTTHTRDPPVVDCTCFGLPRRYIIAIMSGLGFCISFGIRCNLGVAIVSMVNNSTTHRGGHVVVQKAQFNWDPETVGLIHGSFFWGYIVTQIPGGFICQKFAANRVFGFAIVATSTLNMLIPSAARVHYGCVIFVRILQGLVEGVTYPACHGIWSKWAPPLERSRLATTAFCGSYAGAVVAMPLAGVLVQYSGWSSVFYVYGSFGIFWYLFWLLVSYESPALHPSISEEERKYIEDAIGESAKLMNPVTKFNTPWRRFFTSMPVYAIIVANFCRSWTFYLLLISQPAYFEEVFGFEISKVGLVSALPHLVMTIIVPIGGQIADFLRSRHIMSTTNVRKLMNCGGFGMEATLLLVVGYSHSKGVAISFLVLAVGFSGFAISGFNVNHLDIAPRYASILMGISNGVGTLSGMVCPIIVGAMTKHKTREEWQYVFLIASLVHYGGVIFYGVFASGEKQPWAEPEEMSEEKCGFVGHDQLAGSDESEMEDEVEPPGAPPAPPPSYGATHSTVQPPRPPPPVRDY
The assay is described as follows: 3H-glutamate uptake by membranes from PC12 cells expressing BNPI. It is filed as biochemical. To be noted: for inhibition of 3H-glutamate uptake by membranes expressing BNPI: uptake at 5 min; for effect on 3H-glutamate uptake by BNPI membranes: membranes preloaded with 4 mM KCl. From the text:
Rather, the type I transporter NaPi-1 transports organic anions, including phenol red and penicillin G, with substantially higher apparent affinity than Pi (Busch et al. (1996) Proc. Natl. Acad. Sci., USA, 93: 5347). Human genetic studies have shown that mutations in another protein closely related to BNPI and NaPi-1 account for disorders of sialic acid storage (Verheijen et al. (1999) Nature Genet. 23: 462). In these conditions, sialic acid accumulates in lysosomes because of a defect in proton-driven export (Renlund et al. (1986) Science 232: 759; Mancini et al. (1989) J. Biol. Chem. 264: 15247; Tietze et al. (1989) J. Biol. Chem. 264: 15316; Mancini et al. (1992) Proc. Natl. Acad. Sci., USA, 89: 6609). […] To determine whether BNPI mediates the transport of glutamate into synaptic vesicles, we transfected the rat BNPI cDNA into rat pheochromocytoma PC12 cells, which lack detectable endogenous BNPI protein. The rat BNPI cDNA was stably expressed in PC12 cells, and immunofluorescence for BNPI was used to identify the most highly expressing cell clones. Membranes were prepared by homogenizing the washed cells in SH buffer [0.32 M sucrose and 10 mM Hepes-KOH (pH 7.4)] containing protease inhibitors and by pelleting the nuclei at 1000 g for 5 min and the heavier membranes at 27,000 g for 35 min. The supernatant containing lighter membranes was then pelleted at 210,000 g for 1 hour and resuspended in SH buffer with protease inhibitors at a final concentration of ˜10 μg protein/μl.
We then prepared a population of light membranes, including synaptic-like microvesicles, from the transfected and untransfected cells (McIntire et al. (1997) Nature 389: 870) and tested their ability to accumulate 3H-glutamate in the presence of 4 mM chloride and ATP, conditions that optimize glutamate accumulation by native synaptic vesicles (Maycox et al. (1988) J. Biol. Chem., 263: 15423; Carlson et al. […] J. Biol. Chem. 264: 7369). To initiate the transport reaction, we added 10 μl of membranes to 190 μl of SH buffer containing 4 mM KCl, 4 mM MgSO4, 4 mM ATP, and 50 μM 3H-glutamate, with other additions noted in the text and figure legends. The reaction mixture was incubated at 29° C. for varying times, and the uptake was terminated by rapid filtration, followed by immediate washes with 6 ml of cold 0.155 M potassium tartrate and 10 mM Hepes (pH 7.4). Background uptake was determined using membranes prepared from untransfected cells that were incubated for the same amount of time at the same temperature. Transport measurements were performed in duplicate with at least two different preparations of membranes. The Km was calculated by averaging the results of two separate determinations.

In another assay the target is T2, DNPI/VGLUT2 (Rattus norvegicus, UniProt Q9JI12).
T2 construct: To reconstruct the full open reading frame, the missing segment was amplified from rat brain cDNA by PCR; expressed in transfected cells; light membranes prepared from them
T2 sequence (Q9JI12 1-582): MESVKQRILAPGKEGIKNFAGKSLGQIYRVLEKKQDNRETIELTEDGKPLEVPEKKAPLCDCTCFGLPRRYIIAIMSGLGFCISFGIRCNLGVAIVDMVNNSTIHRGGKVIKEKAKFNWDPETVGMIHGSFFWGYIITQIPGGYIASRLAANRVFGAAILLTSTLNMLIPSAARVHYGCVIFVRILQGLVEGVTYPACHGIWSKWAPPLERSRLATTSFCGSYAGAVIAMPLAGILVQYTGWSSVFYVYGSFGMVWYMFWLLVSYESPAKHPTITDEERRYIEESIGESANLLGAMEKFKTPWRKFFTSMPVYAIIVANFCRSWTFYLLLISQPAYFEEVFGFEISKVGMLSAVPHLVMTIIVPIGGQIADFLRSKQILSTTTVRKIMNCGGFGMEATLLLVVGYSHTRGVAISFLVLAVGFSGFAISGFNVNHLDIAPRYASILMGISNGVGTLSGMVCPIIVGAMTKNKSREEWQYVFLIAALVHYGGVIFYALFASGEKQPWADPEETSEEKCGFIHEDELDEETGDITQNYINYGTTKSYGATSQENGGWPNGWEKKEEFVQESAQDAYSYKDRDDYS
The assay is described as follows: 3H-L-glutamate uptake by membranes from PC12 cells expressing DNPI/VGLUT2. It is filed as biochemical. To be noted: for inhibition of DNPI-mediated 3H-L-glutamate uptake: uptake at 5 minutes; for effect on 3H-glutamate uptake by DNPI membranes: preloaded 4 mM KCl, 5 minutes. The protocol:
PC12 cells were grown in Dulbecco's modified Eagle's medium containing 10% equine serum, 5% calf serum and transfected by electroporation with the rat DNPI/VGLUT2 cDNA subcloned in the pcDNA3 vector containing an […] (Krantz et al. (2000) J. Cell Biol. 149). Stable transformants were selected for resistance to the neomycin analog G418 (500 μg/ml) and screened by immunofluorescence with the DNPI antibody, resulting in the identification of two independent clones with more than 80% of the cells expressing DNPI.
For membrane preparation, untransfected and DNPI-expressing PC12 cells were grown on 15 cm plates, washed with calcium- and magnesium-free PBS, collected in 0.32 M sucrose/10 mM HEPES-KOH, pH 7.4 (SH buffer) containing protease inhibitors (2 μg/ml leupeptin, 1 μg/ml pepstatin, 1 μg/ml E64, 0.2 mM diisopropylfluorphosphate, 2 μg/ml aprotinin, and 1.25 mM MgEGTA), homogenized using a ball bearing device and the homogenate sedimented at 1000 g for 5 min to remove nuclei and debris. The supernatant was then sedimented at 27,000 g for 35 min to remove heavier membranes. The remaining light membranes including small synaptic-like microvesicles were then sedimented at 210,000 g for 1 hour. The pellet was resuspended in SH buffer with protease inhibitors at ˜10 mg protein/ml.
To initiate the transport reaction, 20 μl membranes (˜200 μg protein) were added to 180 μl SH buffer containing 4 mM KCl, 4 mM MgSO4, […], and 100 μM ^3H-L-glutamate, with other additions noted in the text and figure legends. The reaction mixture was incubated at 29° C. for varying intervals, uptake was terminated by rapid filtration through Supor-200 membranes (Gelman) and the filters were washed rapidly four times with 1.5 ml cold 0.155 M potassium tartrate/10 mm HEPES-KOH, pH 7.4 before measuring the bound radioactivity by scintillation counting in 3 ml Cytoscint (ICN). Uptake specifically mediated by DNPI/VGLUT2 was determined by subtracting the background uptake of untransfected cell membranes from the uptake by transfected cell membranes. To examine the chloride dependence of transport, varying proportions of 0.14 M K gluconate and 0.14 M KCl were mixed in the standard reaction buffer (without sucrose) to vary the chloride concentration and maintain constant osmolarity. The ionophores nigericin and valinomycin used in FIG. 13E were prepared as 200× stock solutions in ethanol. The final ethanol concentration in the reaction mixture was 1%.

For the next assay, the system named is synaptic vesicles. Particulars: cited from earlier work.
The subject of assay [1] is untransfected PC12 cell membranes. The assay is described as follows: background 3H-glutamate uptake by membranes from untransfected PC12 cells. It is filed as biochemical, rat. To be noted: uptake at 5 min. The procedure: To initiate the transport reaction, we added 10 μl of membranes to 190 μl of SH buffer containing 4 mM KCl, 4 mM MgSO4, 4 mM ATP, and 50 μM 3H-glutamate, with other additions noted in the text and figure legends. […] Background uptake was determined using membranes prepared from untransfected cells that were incubated for the same amount of time at the same temperature. Transport measurements were performed in duplicate with at least two different preparations of membranes. The Km was calculated by averaging the results of two separate determinations.

The structures appear in SMILES notation. Entries after “also recorded” stand apart in the source; their conditions may differ.

Take `N[C@H](CCC(=O)O)C(=O)O` [D-Glutamate]: the “inhibition of 3H-glutamate uptake by membranes expressing BNPI” value (shortened to “inhibition of 3H-glutamate uptake”) at BNPI (VGLUT1) (10 mM) is recorded as “partially inhibits”. Also, the “inhibition of DNPI-mediated 3H-L-glutamate uptake” value on DNPI/VGLUT2 (10 mM) was “significantly inhibit”; on DNPI/VGLUT2 (10 mM, listed as D-glutamate), “inhibit uptake”.

`N[C@H](CC(=O)O)C(=O)O` [D-aspartate]: the “inhibition of DNPI-mediated 3H-L-glutamate uptake” value against DNPI/VGLUT2 (10 mM) is “not”.

As for `O=S(=O)(O)c1cc(N=C=S)ccc1C=Cc1ccc(N=C=S)cc1S(=O)(=O)O` [DIDS, 4,4′-diisothiocyanatostilbene-2,2′-disulfonic acid], on BNPI (VGLUT1) (1 μM DIDS), the “inhibition of 3H-glutamate uptake” value is given as “blocks transport only partly”. Also, at BNPI (VGLUT1) (1 μM DIDS, read-out: inhibition of 3H-glutamate transport mediated by BNPI), the inhibition at 1 µM is roughly 60%. Further, the IC50 in the assay with synaptic vesicles (read-out: median inhibitory concentration, glutamate transport by synaptic vesicles) was roughly 700 nM.

In the case of `Cc1cc(-c2ccc(/N=N/c3ccc4c(S(=O)(=O)O)cc(S(=O)(=O)O)c(N)c4c3O)c(C)c2)ccc1/N=N/c1ccc2c(S(=O)(=O)O)cc(S(=O)(=O)O)c(N)c2c1O` [Evans blue], the “effect on background glutamate uptake by untransfected cell membranes” value in assay [1] was “had little effect”. Moreover, the “inhibition of 3H-glutamate uptake” value at BNPI (VGLUT1) (Evans blue 5 μM (low micromolar)) was “inhibited the transport; also recorded: inhibits BNPI activity dramatically”. Besides, the “inhibition of glutamate transport into synaptic vesicles” value in the assay with synaptic vesicles (low micromolar concentrations) was “inhibited the transport”. Besides, the “inhibition of DNPI-mediated 3H-L-glutamate uptake” value on DNPI/VGLUT2 (Evans Blue 4.5 μM) was “inhibit uptake; also recorded: significantly inhibit”.

On to `NCCCC(=O)O` [GABA, γ-aminobutyric acid], for which, on DNPI/VGLUT2 (10 mM), the “inhibition of DNPI-mediated 3H-L-glutamate uptake” value is “not”.

Consider `NC(=O)CC[C@H](N)C(=O)O` [L-glutamine], for which the “inhibition of 3H-glutamate uptake” value at BNPI (VGLUT1) (10 mM) is “had no effect and not”.

Turning to `O=P(O)(O)O` [Pi, inorganic phosphate], the “inhibition of 3H-glutamate uptake” value against BNPI (VGLUT1) (10 mM) is given as “did not inhibit; also recorded: has little effect”. Besides, on DNPI/VGLUT2 (Pi, data not shown), the “inhibition of 3H-L-glutamate uptake by DNPI” value is reported as “does not”.

For `NCC(=O)O` [glycine], on DNPI/VGLUT2 (10 mM), the “inhibition of DNPI-mediated 3H-L-glutamate uptake” value is listed as “not”.

Turning to `CO[C@@H]1C[C@@H](C[C@H]2CC[C@H](C)[C@H]([C@@H](C)C(=O)O)O2)O[C@]2(O[C@](C)([C@H]3CC[C@@](C)([C@@H]4O[C@@H]([C@H]5O[C@@](O)(CO)[C@H](C)C[C@@H]5C)C[C@@H]4C)O3)C[C@H]2C)[C@@H]1C` [nigericin], the “effect on 3H-glutamate uptake by BNPI membranes” value on BNPI (VGLUT1) (nigericin 5 μM) is given as “increases the uptake”. Also, on DNPI/VGLUT2 (5 μM nigericin), the “effect on 3H-glutamate uptake by DNPI membranes” value is on record as “did not significantly reduce transport”.

Consider `CC(C)[C@@H]1NC(=O)[C@H](C)OC(=O)[C@@H](C(C)C)NC(=O)[C@@H](C(C)C)OC(=O)[C@H](C(C)C)NC(=O)[C@H](C)OC(=O)[C@@H](C(C)C)NC(=O)[C@@H](C(C)C)OC(=O)[C@H](C(C)C)NC(=O)[C@H](C)OC(=O)[C@@H](C(C)C)NC(=O)[C@@H](C(C)C)OC1=O` [valinomycin], for which, at BNPI (VGLUT1) (valinomycin 20 μM), the “effect on 3H-glutamate uptake by BNPI membranes” value is “substantially reduces glutamate uptake”. Besides, the “effect on 3H-glutamate uptake by DNPI membranes” value at DNPI/VGLUT2 (20 μM valinomycin) is reported as “inhibits”.

What is called inhibition is the drop in the measured response relative to a control, in per cent.
